Structures can show the parent of a compound that is named as a salt. Where two headings read alike, the source gives them in different places.
Experiment: Pharmacokinetic study of Icotinib hydrochloride and Polymorph Form II of Icotinib phosphate, oral suspension in fasted SD rats
Assay type: in vivo
Conditions: dose equivalent to 50 mg/kg Icotinib, plasma; for AUC(0-t): read-out: AUC(0-24)
Description: Drugs and reagents: The Icotinib hydrochloride used in this study was of Crystalline Form I disclosed by the WO2010/003313. Polymorph Form II of Icotinib phosphate and Icotinib hydrochloride were ground to fine particles. The material content (purity) was not less than 99.0%. Sodium carboxymethyl cellulose was medical supply graded.
Experimental animals: SD rats were divided to an Icotinib hydrochloride group and a Polymorph Form II group, with both groups consisting of half males and half females.
Pharmaceutical preparation: the amount of each compound was weighed and then sodium carboxymethyl cellulose was added to result in the test compound's concentration of 0.5%. The solid mixture was then added to prepare a suspension thereof at a final concentration of […] in water.
Administration and sample collection: each suspension was administered orally to fasted SD rats at a dose equivalent to 50 mg/kg Icotinib in a dose volume of 5 ml/kg. 0.4 ml of blood was collected in EDTA-K pre anticoagulant tubes at time intervals of 0.5, 1, 1.5, 2, 4, 6, 8 and 24 hrs after the administration of the test compound, centrifuged at 3000 rpm for 10 minutes, and 120 μL plasma was collected and kept in cold storage.
Samples were analyzed by high performance liquid chromatography. The chromatographic conditions utilized C18-silane bonded silica as stationary phase, 0.02 mol/L of sodium dihydrogen phosphate in […] (40:60, using sodium hydroxide solution to adjust pH to 5.0) as the mobile phase and a detection wavelength of 334 nm. PK profile comparison of Crystalline Form I of Icotinib Hydrochloride and Polymorph Form II of Icotinib phosphate was summarized in Table 1 and FIG. 5.

[1] = female, SD, rat, po, 50 mg/kg, female SD rats
[2] = male, SD, rat, po, 50 mg/kg, male SD rats

Row | T1/2 (female SD rats, hydrochloride) [h] | AUC(0-inf) [1] [ng·h/mL] | AUC(0-t) [1] [ng·h/mL] | Cmax (female, SD, rat, po, 50 mg/kg, female SD rats, read-out: Cmax) [ng/mL] | Tmax (female, SD, rat, po, 50 mg/kg, female SD rats, read-out: Tmax) [h] | AUC(0-24) (male SD rats, hydrochloride) [ng·h/mL] | AUC(0-∞) (male SD rats, hydrochloride) [ng·h/mL] | half-life [2] [h] | Cmax (male, SD, rat, po, 50 mg/kg, male SD rats, read-out: Cmax) [ng/mL] | Tmax (male, SD, rat, po, 50 mg/kg, male SD rats, read-out: Tmax) [h] | AUC(0-24) (female SD rats) [ng·h/mL] | AUC(0-∞) (female SD rats) [ng·h/mL] | Cmax (female SD rats) [ng/mL] | T1/2 (female SD rats) [h] | Tmax (female SD rats) [h] | T1/2 (male SD rats) [h] | Tmax (male SD rats) [h] | AUC(0-inf) [2] [ng·h/mL] | AUC(0-t) [2] [ng·h/mL] | SMILES
1 | 6.2 ± 3.5 | 124000 ± 13000 | 113000 ± 24000 | 10200 ± 1900 | 3 ± 1.7 | 19000 ± 7100 | 19100 ± 7200 | 2.9 ± 0.4 | 3400 ± 400 | 2.3 ± 3.2 |  |  |  |  |  |  |  |  |  | C#Cc1cccc(Nc2ncnc3cc4c(cc23)OCCOCCOCCO4)c1 [Icotinib hydrochloride]
2 |  |  |  |  |  |  |  |  |  |  | 155200 ± 20200 | 156700 ± 17800 | 13100 ± 2400 | 2.9 ± 0.4 | 4.7 ± 1.2 | 2.6 ± 0.2 | 2.3 ± 1.5 | 28700 ± 8100 | 28600 ± 8100 | C#Cc1cccc(Nc2ncnc3cc4c(cc23)OCCOCCOCCO4)c1 [Icotinib Phosphate polymorph form II, Icotinib phosphate]
